{"source": "BindingDB's records for doi:10.1016/j.ejmech.2019.03.019", "about": "(Csic - Universidad De Zaragoza, 2019)", "data": [{"experiment": "Inhibition of NS5B RNA dependent RNA polymerase in HCV 1b Con1 infected in human Huh5-2 cells assessed as reduction in viral RNA replication measured after 3 days by luciferase reporter gene assay", "units": {"EC50": "µM"}, "values": [{"smiles": "COC[C@H]1C[C@@](CC(C)C)(C(=O)O)N(C(=O)c2ccc(C(C)(C)C)c(OC)c2)[C@H]1CN=[N+]=[N-]", "EC50": 100}, {"smiles": "COC[C@H]1C[C@@](CC(C)C)(C(=O)O)N(C(=O)c2ccc(C(C)(C)C)c(OC)c2)[C@H]1c1nccs1", "EC50": 0.1}, {"smiles": "COC[C@H]1C[C@@](CC(C)C)(C(=O)O)N(C(=O)c2ccc(C(C)(C)C)c(OC)c2)[C@@H]1c1nccs1", "EC50": 15}, {"smiles": "COC[C@H]1C[C@@](CC(C)C)(C(=O)O)N(C(=O)c2ccc(C(C)(C)C)c(OC)c2)[C@H]1CNC(C)=O", "EC50": 15}, {"smiles": "COC[C@H]1C[C@@](CC(C)C)(C(=O)O)N(C(=O)c2ccc(C(C)(C)C)c(OC)c2)[C@H]1C(=O)OC", "EC50": 7}, {"smiles": "COC[C@H]1C[C@@](CC(C)C)(C(=O)O)N(C(=O)c2ccc(C(C)(C)C)c(OC)c2)[C@H]1[C@H]1COC(=O)O1", "EC50": 2}, {"smiles": "COC[C@H]1C[C@@](CC(C)C)(C(=O)O)N(C(=O)c2ccc(C(C)(C)C)c(OC)c2)[C@H]1C(N)=O", "EC50": 2}, {"smiles": "COC[C@H]1C[C@@](CC(C)C)(C(=O)O)N(C(=O)c2ccc(C(C)(C)C)c(OC)c2)[C@H]1CF", "EC50": 45}, {"smiles": "CCOC(=O)c1csc([C@H]2[C@@H](COC)C[C@@](CC(C)C)(C(=O)O)N2C(=O)c2ccc(C(C)(C)C)c(OC)c2)n1", "EC50": 60}, {"smiles": "CC[C@H]1[C@@H](COC)C[C@@](CC(C)C)(C(=O)O)N1C(=O)c1ccc(C(C)(C)C)c(OC)c1", "EC50": 40}, {"smiles": "C=CCOC[C@H]1[C@@H](COC)C[C@@](CC(C)C)(C(=O)O)N1C(=O)c1ccc(C(C)(C)C)c(OC)c1", "EC50": 7.5}, {"smiles": "COC[C@H]1C[C@@](CC(C)C)(C(=O)O)N(C(=O)c2ccc(C(C)(C)C)c(OC)c2)[C@H]1COC", "EC50": 0.6}, {"smiles": "COC[C@H]1C[C@@](CC(C)C)(C(=O)O)N(C(=O)c2ccc(C(C)(C)C)c(OC)c2)[C@H]1COC(=O)OC", "EC50": 30}, {"smiles": "COC[C@H]1C[C@@](CC(C)C)(C(=O)O)N(C(=O)c2ccc(C(C)(C)C)c(OC)c2)[C@H]1[C@H]1COC(C)(C)O1", "EC50": 60}, {"smiles": "COC[C@H]1C[C@@](CC(C)C)(C(=O)O)N(C(=O)c2ccc(C(C)(C)C)c(OC)c2)[C@H]1COC(C)=O", "EC50": 30}]}]}
